# Experimental data from US11555032B2, “Isoxazole derivatives as FXR agonists and methods of use thereof” (Enanta Pharmaceuticals, Inc., priority 2019, dated 2023).
# Target: T1, human FXR (NR1H4) (Homo sapiens, UniProt Q96RI1)
# T1 construct: host or cells: CHO (Chinese hamster ovary) reporter cells
# T1 sequence (Q96RI1 1-486): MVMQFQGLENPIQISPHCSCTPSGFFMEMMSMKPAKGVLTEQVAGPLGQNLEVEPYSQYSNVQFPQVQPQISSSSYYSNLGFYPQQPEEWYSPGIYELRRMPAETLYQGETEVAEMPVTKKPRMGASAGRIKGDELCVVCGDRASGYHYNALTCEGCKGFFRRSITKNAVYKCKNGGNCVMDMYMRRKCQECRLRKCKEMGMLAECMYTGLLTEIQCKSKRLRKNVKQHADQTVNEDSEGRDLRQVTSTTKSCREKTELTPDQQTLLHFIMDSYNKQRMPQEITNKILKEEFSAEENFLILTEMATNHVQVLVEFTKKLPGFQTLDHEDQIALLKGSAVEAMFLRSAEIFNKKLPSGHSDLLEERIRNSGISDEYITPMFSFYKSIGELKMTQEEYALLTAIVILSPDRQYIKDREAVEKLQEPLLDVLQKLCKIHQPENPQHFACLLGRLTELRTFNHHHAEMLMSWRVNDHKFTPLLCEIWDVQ
# Assay: Human FXR (NRIH4) Assay, luciferase reporter
# Format: cell-based
# Conditions: CHO reporter cells expressing human NR1H4, luciferase, 22 hours incubation
# Text: Determination of a ligand mediated Gal4 promoter driven transactivation to quantify ligand binding mediated activation of FXR. FXR Reporter Assay kit purchased from Indigo Bioscience (Catalogue number: IB00601) to determine the potency and efficacy of compound developed by Enanta that can induce FXR activation. The principle application of this reporter assay system is to quantify functional activity of human FXR. The assay utilizes non-human mammalian cells, CHO (Chinese hamster ovary) cells engineered to express human NR1H4 protein (referred to as FXR). Reporter cells also incorporate the cDNA encoding beetle luciferase which catalyzes the substrates and yields photon emission. Luminescence intensity of the reaction is quantified using a plate-reading luminometer, Envision. Reporter Cells include the luciferase reporter gene functionally linked to an FXR responsive promoter. Thus, quantifying changes in luciferase expression in the treated reporter cells provides a sensitive surrogate measure of the changes in FXR activity. EC50 and efficacy (normalize to CDCA set as 100%) is determined by XLFit. The assay is according to the manufacturer's instructions. In brief, the assay was performed in white, 96 well plates using final volume of 100 ul containing cells with different doses of compounds. Retrieve Reporter Cells from −80° C. storage. Perform a rapid thaw of the frozen cells by transferring a 10 ml volume of 37° C. cell recovery medium into the tube of frozen cells. Recap the tube of Reporter Cells and immediately place it in a 37° C. water bath for 5-10 minutes. Retrieve the tube of Reporter Cell Suspension from the water bath. Sanitize the outside surface of the tube with a 70% alcohol swab, and then transfer it into the cell culture hood. Dispense 90 μl of cell suspension into each well of the 96-well Assay Plate. Transfer the plate into 37° C. incubator, allowing the cells adherent to the bottom of the well. Dilute compounds in Dilution Plate (DP), and administrate to cells at Assay Plate (AP). DMSO content of the samples was kept at 0.2%. Cells were incubated for additional 22 hours before luciferase activities were measured. Thirty minutes before intending to quantify FXR activity, remove Detection Substrate and Detection Buffer from the refrigerator and place them in a low-light area so that they may equilibrate to room temperature. Remove the plate's lid and discard all media contents by ejecting it into an appropriate waste container. Gently tap the inverted plate onto a clean absorbent paper towel to remove residual droplets. Cells will remain tightly adhered to well bottoms. Add 100 μl of luciferase detection reagent to each well of the assay plate. Allow the assay plate to rest at room temperature for at least 5 minutes following the addition of LDR. Set the instrument (Envision) to perform a single 5 second “plate shake” prior to reading the first assay well. Read time may be 0.5 second (500 mSec) per well. EC50 and Efficacy (normalize to CDCA set as 100%) is determined by XLFit.
# The efficacy was normalized to CDCA set as 100%.
row,EC50 [nM],SMILES
1,< 25,O=S(=O)(NC1C2CCC1CC(OCc1c(-c3ccccc3OC(F)(F)F)noc1C1CC1)C2)c1cccc2ccccc12 (stereo not drawn) [Example 9-11]
2,< 25,O=S(=O)(NC1C2CCC1CC(OCc1c(-c3ccccc3OC(F)(F)F)noc1C1CC1)C2)c1cccc2ccncc12 (stereo not drawn) [Example 9-15]
3,25 to 500,CC(C)Oc1ccc(S(=O)(=O)NC2C3CCC2CC(OCc2c(-c4ccccc4OC(F)(F)F)noc2C2CC2)C3)c2ccccc12 (stereo not drawn) [Example 9-17]
4,< 25,CC(C)Oc1cc(CO)cc2sc(NC3C4CCC3CC(OCc3c(-c5ccccc5OC(F)(F)F)noc3C3CC3)C4)nc12 (stereo not drawn) [Example 10-2]
5,25 to 500,"COC(=O)c1ccc2cc(SC3C4CCC3CC(OCc3c(-c5ccccc5OC(F)(F)F)noc3C3CC3)C4)ccc2c1 [Example 11, methyl 6-(((1R,3r,5S,8s)-3-((5-cyclopropyl-3-(2-(trifluoromethoxy)phenyl)isoxazol-4-yl)methoxy)bicyclo[3.2.1]octan-8-yl)thio)-2-naphthoate]"
6,> 500,O=C(O)c1cccc(S(=O)(=O)C2C3CCC2CC(OCc2c(-c4ccccc4OC(F)(F)F)noc2C2CC2)C3)c1 (stereo not drawn) [Example 11-8]
7,25 to 500,COC(=O)c1ccc2nc(SC3C4CCC3CC(OCc3c(-c5ccccc5OC(F)(F)F)noc3C3CC3)C4)sc2c1 (stereo not drawn) [Example 11-9]
8,25 to 500,COC(=O)c1ccc(SC2C3CCC2CC(OCc2c(-c4ccccc4OC(F)(F)F)noc2C2CC2)C3)cc1 (stereo not drawn) [Example 11-12]
9,25 to 500,COC(=O)c1ccc(S(=O)(=O)C2C3CCC2CC(OCc2c(-c4ccccc4OC(F)(F)F)noc2C2CC2)C3)cc1 (stereo not drawn) [Example 11-14]
10,25 to 500,CCOC(=O)c1cc(F)c2nc(SC3C4CCC3CC(OCc3c(-c5ccccc5OC(F)(F)F)noc3C3CC3)C4)sc2c1 (stereo not drawn) [Example 11-16]
11,> 500,CCOC(=O)c1cc(F)c2nc(S(=O)(=O)C3C4CCC3CC(OCc3c(-c5ccccc5OC(F)(F)F)noc3C3CC3)C4)sc2c1 (stereo not drawn) [Example 11-18]
12,< 25,CC(C)Oc1cc(-c2nnn[nH]2)cc2sc(NC3C4CCC3CC(OCc3c(-c5ccccc5OC(F)(F)F)noc3C3CC3)C4)nc12 (stereo not drawn) [Example 13-7]
13,25 to 500,"O=C(O)c1cc(F)c2nc(S[C@@H]3[C@@H]4CC[C@H]3C[C@@H](NCc3c(-c5ccccc5OC(F)(F)F)noc3C3CC3)C4)sc2c1 [Example 14-2, 2-(((1R,3r,5S,8s)-3-(((5-cyclopropyl-3-(2-(trifluoromethoxy)phenyl)isoxazol-4-yl)methyl)amino)bicyclo[3.2.1]octan-8-yl)thio)-4-fluorobenzo[d]thiazole-6-carboxylic acid]"

# Second part, the molecule before the results:
row,SMILES,EC50 [nM]
1,O=S(=O)(NC1C2CCC1CC(OCc1c(-c3ccccc3OC(F)(F)F)noc1C1CC1)C2)c1ccc2ccccc2c1 (stereo not drawn) [Example 9-12],< 25
2,O=S(=O)(NC1C2CCC1CC(OCc1c(-c3ccccc3OC(F)(F)F)noc1C1CC1)C2)c1cccc2cccnc12 (stereo not drawn) [Example 9-13],25 to 500
3,O=S(=O)(NC1C2CCC1CC(OCc1c(-c3ccccc3OC(F)(F)F)noc1C1CC1)C2)c1cccc2cnccc12 (stereo not drawn) [Example 9-14],< 25
4,O=S(=O)(NC1C2CCC1CC(OCc1c(-c3ccccc3OC(F)(F)F)noc1C1CC1)C2)c1cccc2ncccc12 (stereo not drawn) [Example 9-16],< 25
5,CC(C)Oc1cc(C(C)(C)O)cc2sc(NC3C4CCC3CC(OCc3c(-c5ccccc5OC(F)(F)F)noc3C3CC3)C4)nc12 (stereo not drawn) [Example 10],< 25
6,"O=C(O)c1ccc2cc(SC3C4CCC3CC(OCc3c(-c5ccccc5OC(F)(F)F)noc3C3CC3)C4)ccc2c1 [Example 11-2, 6-(((1R,3r,5S,8s)-3-((5-cyclopropyl-3-(2-(trifluoromethoxy)phenyl)isoxazol-4-yl)methoxy)bicyclo[3.2.1]octan-8-yl)thio)-2-naphthoic acid]",25 to 500
7,"COC(=O)c1ccc2cc(S(=O)(=O)C3C4CCC3CC(OCc3c(-c5ccccc5OC(F)(F)F)noc3C3CC3)C4)ccc2c1 [Example 11-3, methyl 6-(((1R,3r,5S,8s)-3-((5-cyclopropyl-3-(2-(trifluoromethoxy)phenyl)isoxazol-4-yl)methoxy)bicyclo[3.2.1]octan-8-yl)sulfonyl)-2-naphthoate]",25 to 500
8,O=C(O)c1ccc2cc(S(=O)(=O)C3C4CCC3CC(OCc3c(-c5ccccc5OC(F)(F)F)noc3C3CC3)C4)ccc2c1 (stereo not drawn) [Example 11-4],25 to 500
9,CCOC(=O)c1cccc(SC2C3CCC2CC(OCc2c(-c4ccccc4OC(F)(F)F)noc2C2CC2)C3)c1 (stereo not drawn) [Example 11-5],> 500
10,O=C(O)c1cccc(SC2C3CCC2CC(OCc2c(-c4ccccc4OC(F)(F)F)noc2C2CC2)C3)c1 (stereo not drawn) [Example 11-6],25 to 500
11,CCOC(=O)c1cccc(S(=O)(=O)C2C3CCC2CC(OCc2c(-c4ccccc4OC(F)(F)F)noc2C2CC2)C3)c1 (stereo not drawn) [Example 11-7],25 to 500
12,O=C(O)c1ccc2nc(SC3C4CCC3CC(OCc3c(-c5ccccc5OC(F)(F)F)noc3C3CC3)C4)sc2c1 (stereo not drawn) [Example 11-10],< 25
13,O=C(O)c1ccc2nc(S(=O)(=O)C3C4CCC3CC(OCc3c(-c5ccccc5OC(F)(F)F)noc3C3CC3)C4)sc2c1 (stereo not drawn) [Example 11-11],25 to 500
14,O=C(O)c1ccc(SC2C3CCC2CC(OCc2c(-c4ccccc4OC(F)(F)F)noc2C2CC2)C3)cc1 (stereo not drawn) [Example 11-13],25 to 500
15,O=C(O)c1ccc(S(=O)(=O)C2C3CCC2CC(OCc2c(-c4ccccc4OC(F)(F)F)noc2C2CC2)C3)cc1 (stereo not drawn) [Example 11-15],25 to 500
16,O=C(O)c1cc(F)c2nc(SC3C4CCC3CC(OCc3c(-c5ccccc5OC(F)(F)F)noc3C3CC3)C4)sc2c1 (stereo not drawn) [Example 11-17],< 25
17,"O=C(O)c1cccc2nc(SC3C4CCC3CC(OCc3c(-c5ccccc5OC(F)(F)F)noc3C3CC3)C4)cnc12 [Example 12, 2-(((1R,3r,5S,8s)-3-((5-cyclopropyl-3-(2-(trifluoromethoxy)phenyl)isoxazol-4-yl)methoxy)bicyclo[3.2.1]octan-8-yl)thio)quinoxaline-5-carboxylic acid]",< 25
18,N#Cc1cccc2ncc(NC3C4CCC3CC(OCc3c(-c5ccccc5OC(F)(F)F)noc3C3CC3)C4)nc12 (stereo not drawn) [Example 13-2],> 500
19,"FC(F)(F)Oc1ccccc1-c1noc(C2CC2)c1CO[C@H]1C[C@H]2CC[C@@H](C1)[C@@H]2Nc1cnc2c(-c3nnn[nH]3)cccc2n1 [Example 13-3, N-((1R,3r,5S,8s)-3-((5-cyclopropyl-3-(2-(trifluoromethoxy)phenyl)isoxazol-4-yl)methoxy)bicyclo[3.2.1]octan-8-yl)-5-(1H-tetrazol-5-yl)quinoxalin-2-amine]",< 25
20,FC(F)(F)Oc1ccccc1-c1noc(C2CC2)c1COC1CC2CCC(C1)C2Nc1nc2c(C3CC3)cc(-c3nnn[nH]3)cc2s1 (stereo not drawn) [Example 13-5],< 25
21,CC(C)Oc1cc(C#N)cc2sc(NC3C4CCC3CC(OCc3c(-c5ccccc5OC(F)(F)F)noc3C3CC3)C4)nc12 (stereo not drawn) [Example 13-6],< 25
22,"CCOC(=O)c1cc(F)c2nc(SC3C4CCC3CC(NCc3c(-c5ccccc5OC(F)(F)F)noc3C3CC3)C4)sc2c1 [Example 14, ethyl 2-(((1R,3r,5S,8s)-3-(((5-cyclopropyl-3-(2-(trifluoromethoxy)phenyl)isoxazol-4-yl)methyl)amino)bicyclo[3.2.1]octan-8-yl)thio)-4-fluorobenzo[d]thiazole-6-carboxylate]",> 500
23,COC(=O)c1ccc2nc(SC3C4CCC3CC(NCc3c(-c5ccccc5OC(F)(F)F)noc3C3CC3)C4)[nH]c2c1 (stereo not drawn) [Example 14-3],25 to 500
